Assay results reported in patent publication US12310975B2, “Modulators of BCL6 proteolysis and associated methods of use” (Arvinas Operations, Inc., priority 2019, dated 2025).

Target: BCL6 (Homo sapiens (Human), UniProt P41182)
Experiment: Immunofluorescence high content imaging of BCL6 degradation in T47D cells
Assay type: cell-based
Details: for Dmax: T47D
Summary of the method: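 T47D cells were treated for 3 days at 37 °C with 11-point 3-fold dilutions of bifunctional degrader (final top 0.1 or 1 μM). BCL6 was detected by immunofluorescence after PFA fixation, with Hoechst and cell mask counterstains, and imaged at 10×, 4 fields/well.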

For `CNC(=O)COc1cc2cc(Nc3nc(N4CCN(C(C)(C)C5CCN(c6cccc(C(=O)NC7CCC(=O)NC7=O)c6F)CC5)CC4)ncc3Cl)ccc2n(C)c1=O` (centres unmarked) [compound 291, 3-[4-(2-{4-[5-chloro-4-({1-methyl-3-[(methylcarbamoyl)methoxy]-2-oxo-1,2-dihydroquinolin-6-yl}amino)pyrimidin-2-yl]piperazin-1-yl}propan-2-yl)piperidin-1-yl]-N-(2,6-dioxopiperidin-3-yl)-2-fluorobenzamide], the IC50 was 10 to 50 nM and the Dmax was at least 70%.

`CCn1c(=O)c(OCC(=O)NC)cc2cc(Nc3nc(N4CCC(OC5CCN(c6cccc7c6C(=O)N(C6CCC(=O)NC6=O)C7=O)CC5)CC4)ncc3Cl)ccc21` (centres unmarked) [compound 292, 2-{[6-({5-chloro-2-[4-({1-[2-(2,6-dioxopiperidin-3-yl)-1,3-dioxo-2,3-dihydro-1H-isoindol-4-yl]piperidin-4-yl}oxy)piperidin-1-yl]pyrimidin-4-yl}amino)-1-ethyl-2-oxo-1,2-dihydroquinolin-3-yl]oxy}-N-methylacetamide] showed an IC50 of under 10 nM and a Dmax of 50 to 70%.

For `CNC(=O)COc1cc2cc(Nc3nc(N4CCC(OC5CCN(c6cccc7c6C(=O)N(C6CCC(=O)NC6=O)C7=O)CC5)CC4)ncc3Cl)ccc2n(C(C)C)c1=O` (centres unmarked) [compound 293, 2-{[6-({5-chloro-2-[4-({1-[2-(2,6-dioxopiperidin-3-yl)-1,3-dioxo-2,3-dihydro-1H-isoindol-4-yl]piperidin-4-yl}oxy)piperidin-1-yl]pyrimidin-4-yl}amino)-2-oxo-1-(propan-2-yl)-1,2-dihydroquinolin-3-yl]oxy}-N-methylacetamide], the IC50 was 10 to 50 nM and the Dmax was 50 to 70%.

With `CCn1c(=O)c(OCC(=O)NC)cc2cc(Nc3nc(N4CCO[C@H](COc5ccc6c(c5)C(=O)N(C5CCC(=O)NC5=O)C6=O)C4)ncc3Cl)ccc21` (stereo partly drawn) [compound 294, 2-{[6-({5-chloro-2-[(2S)-2-({[2-(2,6-dioxopiperidin-3-yl)-1,3-dioxo-2,3-dihydro-1H-isoindol-5-yl]oxy}methyl)morpholin-4-yl]pyrimidin-4-yl}amino)-1-ethyl-2-oxo-1,2-dihydroquinolin-3-yl]oxy}-N-methylacetamide] the IC50 was 50 to 100 nM and the Dmax was under 50%.

With `CCn1c(=O)c(OCC(=O)NC)cc2cc(Nc3nc(N4CCN(CC5CCN(c6cccc(C(=O)NC7CCC(=O)NC7=O)c6F)CC5)CC4)ncc3Cl)ccc21` (centres unmarked) [compound 295, 3-[4-({4-[5-chloro-4-({1-ethyl-3-[(methylcarbamoyl)methoxy]-2-oxo-1,2-dihydroquinolin-6-yl}amino)pyrimidin-2-yl]piperazin-1-yl}methyl)piperidin-1-yl]-N-(2,6-dioxopiperidin-3-yl)-2-fluorobenzamide] the IC50 was under 10 nM and the Dmax was 50 to 70%.

`CNC(=O)COc1cc2cc(Nc3nc(N4CCN(CC5CCN(c6cccc(C(=O)NC7CCC(=O)NC7=O)c6F)CC5)CC4)ncc3Cl)ccc2n(C(C)C)c1=O` (centres unmarked) [compound 296, 3-[4-({4-[5-chloro-4-({3-[(methylcarbamoyl)methoxy]-2-oxo-1-(propan-2-yl)-1,2-dihydroquinolin-6-yl}amino)pyrimidin-2-yl]piperazin-1-yl}methyl)piperidin-1-yl]-N-(2,6-dioxopiperidin-3-yl)-2-fluorobenzamide] gave an IC50 of under 10 nM and a Dmax of at least 70%.

`CNC(=O)COc1cc2cc(Nc3nc(N4CCN(CC5CCN(c6ccc7c(c6)C(=O)N(C6CCC(=O)NC6=O)C7=O)CC5)CC4)c(C#N)cc3Cl)ccc2n(C)c1=O` (centres unmarked) [compound 297, 2-{[6-({3-chloro-5-cyano-6-[4-({1-[2-(2,6-dioxopiperidin-3-yl)-1,3-dioxo-2,3-dihydro-1H-isoindol-5-yl]piperidin-4-yl}methyl)piperazin-1-yl]pyridin-2-yl}amino)-1-methyl-2-oxo-1,2-dihydroquinolin-3-yl]oxy}-N-methylacetamide] was tested, and the IC50 was under 10 nM and the Dmax was under 50%.

`CCn1c(=O)c(OCC(=O)NC)cc2cc(Nc3nc(N4CCC(CN5CC6(C5)CN(c5ccc7c(c5)C(=O)N(C5CCC(=O)NC5=O)C7=O)C6)CC4)ncc3Cl)ccc21` (centres unmarked) [compound 298, 2-{[6-({5-chloro-2-[4-({6-[2-(2,6-dioxopiperidin-3-yl)-1,3-dioxo-2,3-dihydro-1H-isoindol-5-yl]-2,6-diazaspiro[3.3]heptan-2-yl}methyl)piperidin-1-yl]pyrimidin-4-yl}amino)-1-ethyl-2-oxo-1,2-dihydroquinolin-3-yl]oxy}-N-methylacetamide] showed an IC50 of under 10 nM and a Dmax of 50 to 70%.

`CNC(=O)COc1cc2cc(Nc3nc(N4CCN(C(C)(C)C5CCN(c6ccc7c(c6)C(=O)N(C6CCC(=O)NC6=O)C7=O)CC5)CC4)ncc3Cl)ccc2n(C(C)C)c1=O` (centres unmarked) [compound 299, 2-{[6-({5-chloro-2-[4-(2-{1-[2-(2,6-dioxopiperidin-3-yl)-1,3-dioxo-2,3-dihydro-1H-isoindol-5-yl]piperidin-4-yl}propan-2-yl)piperazin-1-yl]pyrimidin-4-yl}amino)-2-oxo-1-(propan-2-yl)-1,2-dihydroquinolin-3-yl]oxy}-N-methylacetamide] gave an IC50 of 10 to 50 nM and a Dmax of at least 70%.

`CCn1c(=O)c(OCC(=O)NC)cc2cc(Nc3cc(N4CCN(C(C)(C)C5CCN(c6ccc7c(c6)C(=O)N(C6CCC(=O)NC6=O)C7=O)CC5)CC4)ncc3Cl)ccc21` (centres unmarked) [compound 300, 2-{[6-({5-chloro-2-[4-(2-{1-[2-(2,6-dioxopiperidin-3-yl)-1,3-dioxo-2,3-dihydro-1H-isoindol-5-yl]piperidin-4-yl}propan-2-yl)piperazin-1-yl]pyridin-4-yl}amino)-1-ethyl-2-oxo-1,2-dihydroquinolin-3-yl]oxy}-N-methylacetamide] showed an IC50 of under 10 nM and a Dmax of 50 to 70%.

For `CCn1c(=O)c(OCC(=O)NC)cc2cc(Nc3nc(N4CCN(CC5CN(C6CN(c7ccc8c(c7)C(=O)N(C7CCC(=O)NC7=O)C8=O)C6)C5)CC4)ncc3Cl)ccc21` (centres unmarked) [compound 302, 2-{[6-({5-chloro-2-[4-({1′-[2-(2,6-dioxopiperidin-3-yl)-1,3-dioxo-2,3-dihydro-1H-isoindol-5-yl]-[1,3′-biazetidin]-3-yl}methyl)piperazin-1-yl]pyrimidin-4-yl}amino)-1-ethyl-2-oxo-1,2-dihydroquinolin-3-yl]oxy}-N-methylacetamide], the IC50 was 10 to 50 nM and the Dmax was under 50%.

`CCn1c(=O)c(OCC(=O)NC)cc2cc(Nc3nc(N4CCC(OC5CC6(C5)CN(c5ccc7c(c5)C(=O)N(C5CCC(=O)NC5=O)C7=O)C6)CC4)ncc3Cl)ccc21` (centres unmarked) [compound 303, 2-{[6-({5-chloro-2-[4-({2-[2-(2,6-dioxopiperidin-3-yl)-1,3-dioxo-2,3-dihydro-1H-isoindol-5-yl]-2-azaspiro[3.3]heptan-6-yl}oxy)piperidin-1-yl]pyrimidin-4-yl}amino)-1-ethyl-2-oxo-1,2-dihydroquinolin-3-yl]oxy}-N-methylacetamide] was tested, and the IC50 was under 10 nM and the Dmax was 50 to 70%.

Compound `CCn1c(=O)c(OCC(=O)NC)cc2cc(Nc3nc(N4CCN(C(C)(C)C5CCN(c6ccc7c(c6)C(=O)N(C6CCC(=O)NC6=O)C7=O)CC5)CC4)ncc3Cl)ccc21` (centres unmarked) [compound 304, 2-{[6-({5-chloro-2-[4-(2-{1-[2-(2,6-dioxopiperidin-3-yl)-1,3-dioxo-2,3-dihydro-1H-isoindol-5-yl]piperidin-4-yl}propan-2-yl)piperazin-1-yl]pyrimidin-4-yl}amino)-1-ethyl-2-oxo-1,2-dihydroquinolin-3-yl]oxy}-N-methylacetamide] has an IC50 of under 10 nM and a Dmax of at least 70%.
